The values that follow are results of earlier work, collected in patent US8690839B2, “Devices for delivering a medicament and connector for same” (priority 2008, dated 2014).

Structures are written as SMILES. Bounds are passed on as bounds.

The conditions of data set [1]: for onset (in words): in vivo.
The conditions of data set [2]: in vivo.

As to `CCOC(=O)c1ccc(N)cc1` [Benzocaine, benzocaine], the onset time result in data set [1] (topical use) was “about 30 seconds”. For the same compound, the toxic dose in data set [2] is on record as > 200 mg.
Regarding `CCCN1CCCC[C@H]1C(=O)Nc1c(C)cccc1C` [Ropivacaine, ropivacaine], the “onset (in words)” value in data set [1] is on record as “slow onset”. Further, the toxic dose entry in data set [2] is reported as “about 175 mg”.
Regarding `CCCCNc1ccc(C(=O)OCCN(C)C)cc1` [Tetracaine, tetracaine], the “onset (in words)” value in data set [1] is recorded as “fast onset”.
